Assay results taken from patent US9115061B2, “Naphthalene-based inhibitors of anti-apoptotic proteins” (BURNHAM INSTITUTE FOR MEDICAL RESEARCH, priority 2007, dated 2015).

What was measured:
BCL-XL = BCL-XL (Homo sapiens (Human), UniProt Q07817); experiment: 1D 1H-NMR binding assay; conditions: 4-point-rating scale; compounds 200 μM, BCL-XL 25 μM; also: key: +++: Very Active; ++: Active; +: Mild; −: Weak
Description: By observing the aliphatic region of the spectra, binding could be readily detected due to chemical shift changes in active site methyl groups of Ile, Leu, Thr, Val or Ala (region between −0.8 and 0.3 ppm). All experiments were performed with a 600 MHz spectrometer Bruker Avance 600 equipped with four rf channels and z-axis pulse-field gradients.

GST-BCL-XL ΔTM protein = GST-BCL-XL ΔTM protein (Homo sapiens (Human), UniProt Q07817); experiment: Competitive fluorescence polarization assay (FITC-Bak BH3 peptide); assay type: binding; conditions: read-out: FPA IC50 (BCL-XL)
Chain of GST-BCL-XL ΔTM protein (Q07817 1-209): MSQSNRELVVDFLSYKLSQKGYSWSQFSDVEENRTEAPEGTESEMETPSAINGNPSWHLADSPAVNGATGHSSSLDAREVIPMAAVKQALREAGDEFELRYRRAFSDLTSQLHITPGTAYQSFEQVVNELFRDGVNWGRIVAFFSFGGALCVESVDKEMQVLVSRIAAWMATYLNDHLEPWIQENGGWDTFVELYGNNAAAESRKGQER
Description: For competitive binding assays, 100 nM GST-BCL-XL ΔTM protein was preincubated with the tested compound at varying concentrations in 47.5 μL PBS (pH=7.4) in 96-well black plates at room temperature for 10 min, then 2.5 μL of 100 nM FITC-labeled Bak BH3 peptide was added to produce a final volume of 50 μL. The wild-type and mutant Bak BH3 peptides were included in each assay plate as positive and negative controls, respectively.
IC50 was determined by fitting the experimental data to a sigmoidal dose-response nonlinear regression model (SigmaPlot 10.0.1, Systat Software, Inc., San Jose, Calif., USA). Data reported are mean of three independent experiments ±standard error (SE). […] Fluorescence polarization was measured after 10 min.

H1299 cell line = experiment: Cell viability, ATP-LITE assay; assay type: cell-based, human; conditions: 72 hours
Description: (§1) The activity of the compounds against human cancer cell lines (PC3ML, H460, H1299, RS11846) were assessed by using the ATP-LITE assay (PerkinElmer). All cells were seeded in either F12 or RPMI1640 medium with 5 mM L-glutamine supplemented with 5% fetal bovine serum (Mediatech Inc.), penicillin and streptomycin (Omega). For maintenance, cells were cultured in 5% FBS. Cells plated into 96 well plates at varying initial densities depending on doubling time. H460 and H1299 plated at 2000 cells/well, A549 and PC3 at 3000 cells/well, and RS118456S at 10,000 cells/well. Compounds were diluted to final concentrations with 0.1% DMSO. Prior to dispensing compounds onto cells, fresh 5% media was placed into wells. Administration of compounds occurred 24 hours after seeding into the fresh media. Cell viability was evaluated using ATP-LITE reagent (PerkinElmer) after 72 hours of treatment. Data were normalized to the DMSO control-treated cells using Prism version 5.01 (Graphpad Software).

H460 cell line = experiment: Cell viability, ATP-LITE assay; assay type: cell-based, human; conditions: 72 hours, ATP-LITE
Description: as §1

PC3ML cells = experiment: Cell viability, ATP-LITE assay; assay type: cell-based, human; conditions: 72 hours, ATP-LITE
Description: as §1

RS11846 cell line [1] = experiment: Cell viability, ATP-LITE assay; assay type: cell-based, human; conditions: 72 hours
Description: as §1

RS11846 cell line [2] = experiment: Apoptosis, Annexin V and propidium iodide assay; assay type: cell-based, human; conditions: 1-2 days; read-out: RS11846 EC50 (Annexin V- and propidium iodide assay)
Description: The apoptotic activity of the compounds against RS11846 cells was assessed by staining with Annexin V- and propidium iodide (PI). Lymphoma cell line, RS11846, was cultured in RPMI 1640 medium (Mediatech Inc., Herndon, Va. 20171) containing 10% fetal bovine serum (Mediatech Inc., Herndon, Va. 20171) and Penicillin/Streptomycin (Mediatech Inc., Herndon, Va. 20171). […] The percentage of viable cells was determined by FITC-Annexin V- and propidium iodide (PI)-labeling, using an Apoptosis Detection kit (BioVision Inc.), and analyzing stained cells by flow cytometry (FACSort; Bectin-Dickinson, Inc.; Mountain View, Calif.). Cells that were annexin-V-negative and PI-negative were considered viable.

380 cell line = experiment: Apoptosis induction in NHL B-cell lines, Annexin V-FITC/PI; assay type: cell-based; conditions: 48 hours, relative to DOHH2 and RS11846
Description: (§2) After 48 hours of incubation, % viability was determined by FACSort after staining cells by the use of an Annexin V-FITC/PI Apoptosis Detection kit (BioVision Inc.). Viable cells were defined by Annexin V-negative, PI-negative cells.

DOHH2 cell line = experiment: as above; assay type: cell-based; conditions: 48 hours; read-out: IC50, % viability DOHH2
Description: as §2

RS11846 cell line [3] = experiment: as above; assay type: cell-based; conditions: 48 hours; read-out: IC50, % viability RS11846
Description: as §2

[4] = system: murine B-cells from BCL-2 transgenic mice; experiment: Viability of cultured splenocytes, Annexin V-FITC/PI; assay type: cell-based; conditions: 18 hours; read-out: IC50, induction of apoptosis in cultured B-cells of BCL-2 transgenic mouse
Description: Spleens were excised from sacrificed mice and cell suspensions treated with a mouse erythrocyte lysing kit (R & D Systems). Total splenocyte count was determined by typan blue dye exclusion assays using hemocytometers. The percentage of B-lymphocytes was determined by fluorescence activated cell sorter (FACS) analysis SACS-CANTO, Bectin-Dickinson Inc., Mountain View, Calif.) following staining cells with Phyco-Erytrin (PE)-conjugated anti-CD19 or -B220 antibodies (Becton Dickinson, San Jose, Calif. 95131).
After 18 hours of incubation, % viability of splenocytes was determined by FACSort after staining cells by the use of an Annexin V-FITC/PI Apoptosis Detection kit (BioVision Inc.). Viable cells were defined by Annexin V-negative, PI-negative cells.

MCF7 cells = experiment: XTT dye reduction assay; assay type: cell-based, human; conditions: three days, read-out: IC50, cell viability MCF7
Description: (§3) The effects of the compounds on viability of tumor cells in culture were monitored by using XTT assays with MCF7 and ZR75-1 cell lines. MCF7 cells were grown in DMEM containing 10% fetal bovine serum, penicillin/streptomycin, supplemented with 10^−10 M insulin, 1 mM sodium pyruvate and glutamine. ZR75-1 cells were grown in RPMI containing 10% fetal bovine serum, penicillin/streptomycin, supplemented with HEPES buffer, 1 mM sodium pyruvate and glutamine. Cells were regularly tested for mycoplasma contamination. Cells were seeded triplicates at an initial cell density of 1,000 cells per well. Blank wells received no cells.
(§4) Relative numbers of viable cells was determined by XTT assay. Briefly, in a 96-well plate, we added 50 μl of a mixture of 1 mg/ml of XTT (2,3-bis(2-methoxy-4-nitro-5-sulfophenyl)-5-[(phenylamino)carbonyl]-2H-tetrazolium hydroxide) (Polysciences, Washington, Pa.) containing 0.025 mM PMS (phenazine methosulfate) to each well. The 96-well plates were reincubated for an additional 4 hours to allow for XTT formazan production. Then, the contents of each plate were mixed and optical densities were determined at a wavelength of 450 nm (OD450). Net OD450 was determined after subtracting OD450 of blank wells. Low-passage HeLa cells (between passage number 10 and 20) were transfected with pcDNA3-BCL-XL or control pcDNA3 plasmids using Lipofectamine Plus reagent (Invitrogen) and selected in medium containing 800 μg/ml of G418. Immunoblot analysis of BCL-XL was accomplished as previously described.

ZR75-1 cells = experiment: XTT dye reduction assay; assay type: cell-based, human; conditions: three days, read-out: IC50, cell viability ZR75-1
Description: as §3, §4

[5] = orally 0.06 mmol/kg daily for up to 21 days; cited from earlier work

Chain of BCL-XL (Q07817 whole entry): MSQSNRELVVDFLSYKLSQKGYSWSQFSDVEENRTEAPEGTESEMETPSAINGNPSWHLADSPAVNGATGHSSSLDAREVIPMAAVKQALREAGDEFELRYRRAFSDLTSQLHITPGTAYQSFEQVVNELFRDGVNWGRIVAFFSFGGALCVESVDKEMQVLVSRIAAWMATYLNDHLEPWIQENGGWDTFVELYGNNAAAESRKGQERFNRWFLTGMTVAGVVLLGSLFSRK

Cc1cc2c(C(C)C)c(O)c(O)c(C=O)c2c(O)c1-c1c(C)cc2c(C(C)C)c(O)c(O)c(C=O)c2c1O [Gossypol, gossypol]
1D 1H-NMR Binding Assay (BCL-XL) (BCL-XL): ++ | IC50 (GST-BCL-XL ΔTM protein): 2720 nM | EC50 (H1299 cell line): 6 µM | EC50 (H460 cell line): 3000 nM | EC50 (PC3ML cells): 3.1 µM | EC50 (RS11846 cell line [1]): 2200 nM | EC50 (RS11846 cell line [2]): 4.23 µM | sensitivity of 380 cell line (380 cell line): slightly more resistant | IC50 (DOHH2 cell line): ~3000 nM | IC50 (RS11846 cell line [3]): ~3000 nM | IC50 [4]: ~10 µM | IC50 (MCF7 cells): 13.2 µM | IC50 (ZR75-1 cells): 8.4 µM | anti-tumor activity [5]: show anti-tumor activity | lethality [5]: non-lethal
